The assay deals with CD2F1 mice, L1210 leukemia ip, survival T/C. The experiment in a line: NCI In Vivo Anticancer Drug Screen. Data for tumor model L1210 Leukemia (intraperitoneal) in CD2F1 (CDF1) mice. The conditions noted are these: higher = longer survival. In short, it runs like this:
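Tumor-bearing mice (transplanted tumor) were split into treated and vehicle control groups, and the measured endpoint of each treated group was divided by that of its vehicle controls.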

The mark [1] stands for this setting: endpoint: mean survival time, dose: 100.0 mg/kg/injection, schedule: Q01DX009 (ip), vehicle: saline with Tween-80.
[2] abbreviates: endpoint: mean survival time, dose: 100.0 mg/kg/injection, schedule: Q04DX003 (ip), vehicle: saline with Tween-80.
The mark [3] stands for this setting: endpoint: mean survival time, dose: 200.0 mg/kg/injection, schedule: Q01DX009 (ip), vehicle: saline with Tween-80.
Setting [4] is: endpoint: mean survival time, dose: 200.0 mg/kg/injection, schedule: Q04DX003 (ip), vehicle: saline with Tween-80.
The mark [5] stands for this setting: endpoint: mean survival time, dose: 400.0 mg/kg/injection, schedule: Q01DX009 (ip), vehicle: saline with Tween-80.
Setting [6] is: endpoint: mean survival time, dose: 400.0 mg/kg/injection, schedule: Q04DX003 (ip), vehicle: saline with Tween-80.
Setting [7] is: endpoint: mean survival time, dose: 100.0 mg/kg/injection, schedule: Q04DX002 (ip), vehicle: saline with Tween-80.
The mark [8] stands for this setting: endpoint: mean survival time, dose: 200.0 mg/kg/injection, schedule: Q04DX002 (ip), vehicle: saline with Tween-80.
The mark [9] stands for this setting: endpoint: mean survival time, dose: 400.0 mg/kg/injection, schedule: Q04DX002 (ip), vehicle: saline with Tween-80.

We go through 15 compounds from PubChem BioAssay AID256 (DTP/NCI, 2004).

The structures appear in SMILES notation. Inconclusive results and toxic doses are left out.

For the compound `CCSC(C(O)C(O)C(O)C(O)CO)n1cnc2c(=S)nc[nH]c21` (centres undefined), the T/C was 94 % of control (endpoint: mean survival time, dose: 25.0 mg/kg/injection, schedule: Q01DX005 (ip), vehicle: water); 97 % of control (endpoint: mean survival time, dose: 50.0 mg/kg/injection, schedule: Q01DX005 (ip), vehicle: water); 96 % of control (endpoint: mean survival time, dose: 100.0 mg/kg/injection, schedule: Q01DX005 (ip), vehicle: water); 107 % of control (endpoint: mean survival time, dose: 177.0 mg/kg/injection, schedule: Q01DX009 (ip), vehicle: saline with Tween-80); 96 % of control (endpoint: mean survival time, dose: 200.0 mg/kg/injection, schedule: Q01DX005 (ip), vehicle: water); 102 % of control (endpoint: mean survival time, dose: 265.0 mg/kg/injection, schedule: Q01DX009 (ip), vehicle: saline with Tween-80). For the setting “endpoint: mean survival time, dose: 600.0 mg/kg/injection, schedule: Q01DX009 (ip), vehicle: saline with Tween-80”, the T/C was 150 % of control.

As for `O=C(NC(O)C(Cl)(Cl)Cl)C(Cl)(Cl)Cl` (centres undefined), the T/C under setting [1] is 89 % of control; the T/C under setting [2] was 104 % of control; the T/C under setting [3] is 100 % of control; the T/C under setting [4] was 105 % of control; the T/C under setting [5] is 107 % of control; the T/C under setting [6] is 104 % of control.

On to `C=C(Br)CN(CC)C(C)=O`, for which the T/C is 102 % of control (endpoint: mean survival time, dose: 12.5 mg/kg/injection, schedule: Q01DX009 (ip), vehicle: saline); 96 % of control (endpoint: mean survival time, dose: 12.5 mg/kg/injection, schedule: Q04DX003 (ip), vehicle: saline); 97 % of control (endpoint: mean survival time, dose: 25.0 mg/kg/injection, schedule: Q01DX009 (ip), vehicle: saline); 95 % of control (endpoint: mean survival time, dose: 25.0 mg/kg/injection, schedule: Q04DX003 (ip), vehicle: saline); 114 % of control (endpoint: mean survival time, dose: 50.0 mg/kg/injection, schedule: Q01DX009 (ip), vehicle: saline); 104 % of control (endpoint: mean survival time, dose: 50.0 mg/kg/injection, schedule: Q04DX003 (ip), vehicle: saline).

For the compound `CCCCCCCC/C=C\CCCCCCCC(=O)OCCCCC`, the T/C reads like this: under setting [7], 87 % of control; under setting [8], 95 % of control; under setting [9], 106 % of control.

Turning to `CCOc1c(C#N)c2c(N)ncnc2n1C1OC(CO)C(O)C1O` (centres undefined), the T/C was 103 % of control (endpoint: mean survival time, dose: 12.5 mg/kg/injection, schedule: Q01DX009 (ip), vehicle: distilled water + Tween-80); 112 % of control (endpoint: mean survival time, dose: 25.0 mg/kg/injection, schedule: Q01DX009 (ip), vehicle: distilled water + Tween-80); 112 % of control (endpoint: mean survival time, dose: 50.0 mg/kg/injection, schedule: Q01DX009 (ip), vehicle: distilled water + Tween-80); 117 % of control (endpoint: mean survival time, dose: 100.0 mg/kg/injection, schedule: Q01DX009 (ip), vehicle: distilled water + Tween-80).

Regarding `O=C(O)CCCCCCCCC#CC#CCCCc1ccccc1`, the T/C reads like this: (endpoint: mean survival time, dose: 100.0 mg/kg/injection, schedule: Q04DX003 (ip), vehicle: Klucel (hydroxypropylcellulose) (HPC)) 95 % of control; (endpoint: mean survival time, dose: 200.0 mg/kg/injection, schedule: Q04DX003 (ip), vehicle: Klucel (hydroxypropylcellulose) (HPC)) 95 % of control; (endpoint: mean survival time, dose: 400.0 mg/kg/injection, schedule: Q04DX003 (ip), vehicle: Klucel (hydroxypropylcellulose) (HPC)) 97 % of control.

As for `CN(C)CCNCCN(C)C`, the T/C was 100 % of control (endpoint: mean survival time, dose: 75.0 mg/kg/injection, schedule: Q01DX001 (ip), vehicle: saline); 100 % of control (endpoint: mean survival time, dose: 150.0 mg/kg/injection, schedule: Q01DX001 (ip), vehicle: saline); 102 % of control (endpoint: mean survival time, dose: 300.0 mg/kg/injection, schedule: Q01DX001 (ip), vehicle: saline).

As for `O=C(O)c1ccccc1C(=O)NCCc1c[nH]c2ccccc12`, the T/C was 104 % of control under setting [1]; 96 % of control under setting [2]; 96 % of control under setting [3]; 96 % of control under setting [4]; 102 % of control under setting [5]; 95 % of control under setting [6].

As for `O=C1CC[C@@H]2CCCC[C@@H]2C1`, the T/C is 96 % of control (endpoint: mean survival time, dose: 12.5 mg/kg/injection, schedule: Q01DX009 (ip), vehicle: saline with Tween-80); 92 % of control (endpoint: mean survival time, dose: 25.0 mg/kg/injection, schedule: Q01DX009 (ip), vehicle: saline with Tween-80); 98 % of control (endpoint: mean survival time, dose: 50.0 mg/kg/injection, schedule: Q01DX009 (ip), vehicle: saline with Tween-80); 98 % of control (endpoint: mean survival time, dose: 50.0 mg/kg/injection, schedule: Q04DX003 (ip), vehicle: saline with Tween-80).

For the compound `Cc1ccc2nc(C(F)(F)F)cc(NN)c2c1`, the T/C under setting [1] is 100 % of control; the T/C under setting [2] is 101 % of control; the T/C under setting [3] was 94 % of control; the T/C under setting [4] is 96 % of control; the T/C under setting [5] was 100 % of control; the T/C under setting [6] is 98 % of control.

On to `CSc1nc(NC2OCC(O)C(O)C2O)c(I)c(=O)n1C` (centres undefined), for which the T/C by setting is: (endpoint: median survival time, dose: 12.5 mg/kg/injection, schedule: Q01DX005 (ip), vehicle: saline with Tween-80) 103 % of control; (endpoint: median survival time, dose: 25.0 mg/kg/injection, schedule: Q01DX005 (ip), vehicle: saline with Tween-80) 101 % of control; (endpoint: median survival time, dose: 50.0 mg/kg/injection, schedule: Q01DX005 (ip), vehicle: saline with Tween-80) 101 % of control; (endpoint: median survival time, dose: 100.0 mg/kg/injection, schedule: Q01DX005 (ip), vehicle: saline with Tween-80) 100 % of control; (endpoint: median survival time, dose: 200.0 mg/kg/injection, schedule: Q01DX005 (ip), vehicle: saline with Tween-80) 100 % of control.

For `CC(=O)OC1CCC2(C)C(=CC=C3C2CCC2(C)C3CCC2C(C)/C=C/C(C)C(C)C)C1` (centres undefined), the T/C reads like this: (endpoint: mean survival time, dose: 50.0 mg/kg/injection, schedule: Q01DX009 (ip), vehicle: Klucel (hydroxypropylcellulose) (HPC)) 89 % of control; (endpoint: mean survival time, dose: 100.0 mg/kg/injection, schedule: Q01DX009 (ip), vehicle: Klucel (hydroxypropylcellulose) (HPC)) 101 % of control; (endpoint: mean survival time, dose: 200.0 mg/kg/injection, schedule: Q01DX009 (ip), vehicle: Klucel (hydroxypropylcellulose) (HPC)) 93 % of control.

Take `C/C(CCc1cnc2ccccc2c1)=N/NC(N)=O`: the T/C is, setting by setting: under setting [7], 96 % of control; under setting [8], 88 % of control; under setting [9], 103 % of control.

Regarding `CCCCCCCCCCCCCCOc1ccccc1Cl`, the T/C is, setting by setting: under setting [7], 101 % of control; under setting [8], 101 % of control; under setting [9], 90 % of control.

Consider `C=[CH][Pb]([CH]=C)([O]C(=O)C(C)C)[O]C(=O)C(C)C`, for which the T/C reads like this: (endpoint: mean survival time, dose: 5.0 mg/kg/injection, schedule: Q01DX009 (ip), vehicle: saline with Tween-80) 93 % of control; (endpoint: mean survival time, dose: 10.0 mg/kg/injection, schedule: Q01DX009 (ip), vehicle: saline with Tween-80) 95 % of control.
